In US20060205071A1, “Methods for ex-vivo expanding stem/progenitor cells” (priority 2003, published 2006):
“Also recorded” adds a separate entry of the source.

Key:
[1] = system: Hematopoietic stem/progenitor cells isolated from umbilical cord blood; assay: Long Term Culture-Colony Forming Cell (LTC-CFC) assay of bag-cultured HSC; assay type: cell-based, human
Protocol: FIGS. 1A-1C are a graphic representation of the ex-vivo expansion and inhibition of differentiation of stem cells in a static bioreactor. Hematopoietic stem/progenitor cells isolated from umbilical cord blood (UCB) mononuclear cells by magnetic activated cell sorting (MACS technology, Milteny, Bergisch-Gladbach, GmbH) were seeded in static bioreactors (gas permeable culture bags) at concentrations of 1×10^4 cells/ml in MEM-alpha with 10% Fetal Calf Serum (FCS) containing 50 ng/ml of the following cytokines: SCF, TPO, Flt-3, IL-6, with (TEPA) or without (control) added copper chelator tetraethylenepentamine (TEPA, Aldrich, Milwaukee Wis., USA) (5 μM), and incubated for at least three weeks in a 5% CO2 humidified incubator. […] CFUc frequency was calculated as number of CFUc per number of cells.
Self-Renewal Potential Evaluations: The self-renewal potential of stem cells was determined in vitro by long-term colony formation. […] The resulting colonies were scored after two weeks of incubation at 37° C. in a humidified atmosphere of 5% CO2 in air. […]
Calculations: Ex vivo expansion of TNC, CD133, CD133+CD34− cells and CFUc are reported either as cumulative numbers; number of cells per ml multiply by the final culture volume, or as fold-expansion; cumulative numbers divided by initial seeding cell number. CFUc frequency is calculated as number of colonies divided by cell number. […]

[2] = system: cord-blood-derived, bone marrow-derived, and peripheral blood derived stem and progenitor cells; conditions: grown without a feeder layer; cited from earlier work
[3] = system: Hematopoietic stem/progenitor cells isolated from umbilical cord blood; assay: Ex vivo expansion of HSC with copper chelator in a gas permeable culture bag (static bioreactor); assay type: cell-based, human
Protocol: Hematopoietic stem/progenitor cells isolated from umbilical cord blood (UCB) mononuclear cells by magnetic activated cell sorting (MACS technology, Milteny, Bergisch-Gladbach, GmbH) were seeded in static bioreactors (gas permeable culture bags) at concentrations of 1×10^4 cells/ml in MEM-alpha with 10% Fetal Calf Serum (FCS) containing 50 ng/ml of the following cytokines: SCF, TPO, Flt-3, IL-6, with (TEPA) or without (control) added copper chelator tetraethylenepentamine (TEPA, Aldrich, Milwaukee Wis., USA) (5 μM), and incubated for at least three weeks in a 5% CO2 humidified incubator. […] Cell Cultures of Human Hematopoietic Stem/Progenitor Cells: Human umbilical cord blood cells were obtained from umbilical cord blood after normal full-term delivery (informed consent was given). MPB, or BM were obtained from donations (informed consent was given). Samples were either used fresh or collected and frozen according to well known cord blood cryopreservation protocol (Rubinstein et al. 1995) within 24 h postpartum for UCB or according to common practice regarding MPB and BM. Prior to cryopreservation, blood was sedimented for 30 minutes on […] Starch (hydroxyethyl starch) to remove most RBC. Prior to their use, the cells were thawed in Dextran buffer (Sigma, St. Louis, Mo., USA) containing 2.5% human serum albumin (HSA) (Bayer Corp. Elkhart, Ind., USA) and processed as described herein below. Following thawing, where indicated, the leukocyte-rich fraction was harvested and layered on Ficoll-Hypaque gradient (1.077 g/mL; Sigma Inc, St Louis Mo., USA), and centrifuged at 400X g for 30 minutes. The mononuclear cell fraction in the interface layer was then collected, washed three times, and re-suspended in phosphate-buffered saline (PBS) (Biological Industries, Bet HaEmek, Israel) containing 0.5% human serum albumin (HSA) (Bayer Corp. Elkhart, Ind., USA). The CD133^+ cell fraction was purified as follows: Either the mononuclear cell fraction was subjected to two cycles of immuno-magnetic separation using the “MiniMACS CD133 stem cell isolation kit” (Miltenyi Biotec, Auburn, Calif.) or the unfractionated preparation was isolated on the CliniMACS device using CD133^+ CliniMACS (Miltenyi Biotec, Auburn, Calif.) reagent, accordingly, following the manufacturer's recommendations (in the latter, the Ficoll-Hypaque gradient stage was omitted). The purity of the CD133^+ population thus obtained was 80-95%, as evaluated by flow cytometry. […]

[4] = static bioreactor (VueLife FEP Teflon bag), compared with cells cultured without TEPA

Q: With NCCNCCNCCNCCN [TEPA, tetraethylenepentamine] as the molecule, how does the “LTC-CFC numbers (colonogenic potential, CFUs)” value ([1]; 5 μM TEPA vs control cells grown with cytokines but not TEPA) read?
A: The value was “at least one order of magnitude; also recorded: predominance of CFUs”.

Q: And the “functional characteristics (colonogenic potential)” value [1, 4]?
A: Its value is “superior”.

Q: And the “fraction of CD34+ cell” value [2]?
A: Its value is “greatly enhanced”.

Q: What about the long-term clonability [2] of the same molecule?
A: The long-term clonability was “greatly enhanced”.

Q: What about the “fold expansion of immature subpopulations of HSC (CD34+/CD38− and CD34+/lin−)” value ([3]; 5 μM TEPA, three weeks, static bioreactor (culture bag), vs cytokines without TEPA) of the same molecule?
A: The value was “dramatically increases; also recorded: predominance of undifferentiated CD34^+/CD38^− and CD34^+/lin^−”.

Q: What about the “fraction of self-renewing, undifferentiated cells” value ([3]; short and long term culture in a static bioreactor, compared with cytokine-only cultures) of the same molecule?
A: The value was “dramatically increased”.

Q: What about the “population of ex-vivo cultured stem and/or progenitor cells” value [3, 4] of the same molecule?
A: Its value is “greatly expanded”.
